Measured values as given in publication PMC3714338 (Analytical biochemistry, 2013).

Biological target: Mtb APR (adenosine 5′-phosphosulfate reductase; also MtbAPSR) (Mycobacterium tuberculosis, UniProt P9WIK3)
Assay: biochemical

Mtb APR (adenosine 5′-phosphosulfate reductase; also MtbAPSR), sequence (P9WIK3 whole entry, looked up): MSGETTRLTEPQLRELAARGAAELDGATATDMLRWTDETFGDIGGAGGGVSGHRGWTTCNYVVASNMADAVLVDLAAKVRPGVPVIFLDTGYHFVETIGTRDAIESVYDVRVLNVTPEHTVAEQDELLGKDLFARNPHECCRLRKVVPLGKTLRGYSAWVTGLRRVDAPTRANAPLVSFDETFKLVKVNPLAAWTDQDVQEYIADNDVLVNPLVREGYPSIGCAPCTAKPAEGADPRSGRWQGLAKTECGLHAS

SMILES: Nc1ncnc2c1ncn2[C@@H]1O[C@H](COP(=O)(O)OP(=O)(O)O)[C@@H](O)[C@H]1O [ADP]
- Ki: 83 ± 0.2 µM
